Measurements published in article PMC8550792, “Evolution of kinase polypharmacology across HSP90 drug discovery” (Cell Chemical Biology, 2021).

Tests used:
Experiment in all cases: biochemical
Type in all cases: biochemical
[1] = target: T1, 382 unique human kinases (Homo sapiens, UniProt P22612); conditions: kinase PKAcg, compound 10 uM; for remaining activity at 10 µM: read-out: % Enzyme Activity (relative to DMSO controls)
T1 construct: purchased Reaction Biology (HotSpot contract assay)

[2] = target: T2, 382 unique human kinases (Homo sapiens, UniProt P23443); conditions: kinase p70S6K/RPS6KB1, compound 10 uM; for remaining activity at 10 µM: read-out: % Enzyme Activity (relative to DMSO controls)
T2 construct: purchased Reaction Biology (HotSpot contract assay)

[3] = target: T3, 382 unique human kinases (Homo sapiens, UniProt P30291); conditions: kinase WEE1, compound 10 uM; for remaining activity at 10 µM: read-out: % Enzyme Activity (relative to DMSO controls)
T3 construct: purchased Reaction Biology (HotSpot contract assay)

[4] = target: T4, 382 unique human kinases (Homo sapiens, UniProt P31751); conditions: kinase AKT2, compound 10 uM; for remaining activity at 10 µM: read-out: % Enzyme Activity (relative to DMSO controls)
T4 construct: purchased Reaction Biology (HotSpot contract assay)

[5] = target: T5, 382 unique human kinases (Homo sapiens, UniProt P48729); conditions: kinase CK1a1, compound 10 uM; for remaining activity at 10 µM: read-out: % Enzyme Activity (relative to DMSO controls)
T5 construct: purchased Reaction Biology (HotSpot contract assay)
T5 sequence (P48729 whole entry): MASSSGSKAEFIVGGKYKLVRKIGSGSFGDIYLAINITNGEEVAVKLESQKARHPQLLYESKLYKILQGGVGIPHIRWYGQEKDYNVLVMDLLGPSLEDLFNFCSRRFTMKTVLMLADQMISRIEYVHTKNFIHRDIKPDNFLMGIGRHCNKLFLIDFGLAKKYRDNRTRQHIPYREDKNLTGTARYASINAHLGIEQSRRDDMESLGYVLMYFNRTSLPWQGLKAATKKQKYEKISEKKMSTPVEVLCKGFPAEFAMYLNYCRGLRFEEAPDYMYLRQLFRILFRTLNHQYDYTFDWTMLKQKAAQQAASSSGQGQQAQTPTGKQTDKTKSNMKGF

[6] = target: T6, 382 unique human kinases (Homo sapiens, UniProt Q04771); conditions: ALK2/ACVR1, compound at 10 uM, duplicate values; for remaining activity at 10 µM: read-out: % Enzyme Activity (relative to DMSO controls)
T6 construct: purchased Reaction Biology (HotSpot contract assay)
T6 sequence (Q04771 21-509): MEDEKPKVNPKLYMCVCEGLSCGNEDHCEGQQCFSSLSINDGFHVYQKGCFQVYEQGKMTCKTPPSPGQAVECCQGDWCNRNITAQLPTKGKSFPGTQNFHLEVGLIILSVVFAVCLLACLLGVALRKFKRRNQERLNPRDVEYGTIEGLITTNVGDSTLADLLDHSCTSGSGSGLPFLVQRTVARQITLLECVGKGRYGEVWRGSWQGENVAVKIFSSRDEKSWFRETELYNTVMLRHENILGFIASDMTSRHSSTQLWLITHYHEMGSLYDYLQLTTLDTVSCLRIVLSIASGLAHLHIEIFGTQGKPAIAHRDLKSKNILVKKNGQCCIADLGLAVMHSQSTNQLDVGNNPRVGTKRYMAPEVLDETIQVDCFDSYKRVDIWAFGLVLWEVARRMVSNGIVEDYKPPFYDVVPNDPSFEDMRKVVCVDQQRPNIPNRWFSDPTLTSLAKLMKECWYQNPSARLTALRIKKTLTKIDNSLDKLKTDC

[7] = target: T7, 382 unique human kinases (Homo sapiens, UniProt Q05397); conditions: kinase FAK/PTK2, compound 10 uM; for remaining activity at 10 µM: read-out: % Enzyme Activity (relative to DMSO controls)
T7 construct: purchased Reaction Biology (HotSpot contract assay)
T7 sequence (Q05397 whole entry): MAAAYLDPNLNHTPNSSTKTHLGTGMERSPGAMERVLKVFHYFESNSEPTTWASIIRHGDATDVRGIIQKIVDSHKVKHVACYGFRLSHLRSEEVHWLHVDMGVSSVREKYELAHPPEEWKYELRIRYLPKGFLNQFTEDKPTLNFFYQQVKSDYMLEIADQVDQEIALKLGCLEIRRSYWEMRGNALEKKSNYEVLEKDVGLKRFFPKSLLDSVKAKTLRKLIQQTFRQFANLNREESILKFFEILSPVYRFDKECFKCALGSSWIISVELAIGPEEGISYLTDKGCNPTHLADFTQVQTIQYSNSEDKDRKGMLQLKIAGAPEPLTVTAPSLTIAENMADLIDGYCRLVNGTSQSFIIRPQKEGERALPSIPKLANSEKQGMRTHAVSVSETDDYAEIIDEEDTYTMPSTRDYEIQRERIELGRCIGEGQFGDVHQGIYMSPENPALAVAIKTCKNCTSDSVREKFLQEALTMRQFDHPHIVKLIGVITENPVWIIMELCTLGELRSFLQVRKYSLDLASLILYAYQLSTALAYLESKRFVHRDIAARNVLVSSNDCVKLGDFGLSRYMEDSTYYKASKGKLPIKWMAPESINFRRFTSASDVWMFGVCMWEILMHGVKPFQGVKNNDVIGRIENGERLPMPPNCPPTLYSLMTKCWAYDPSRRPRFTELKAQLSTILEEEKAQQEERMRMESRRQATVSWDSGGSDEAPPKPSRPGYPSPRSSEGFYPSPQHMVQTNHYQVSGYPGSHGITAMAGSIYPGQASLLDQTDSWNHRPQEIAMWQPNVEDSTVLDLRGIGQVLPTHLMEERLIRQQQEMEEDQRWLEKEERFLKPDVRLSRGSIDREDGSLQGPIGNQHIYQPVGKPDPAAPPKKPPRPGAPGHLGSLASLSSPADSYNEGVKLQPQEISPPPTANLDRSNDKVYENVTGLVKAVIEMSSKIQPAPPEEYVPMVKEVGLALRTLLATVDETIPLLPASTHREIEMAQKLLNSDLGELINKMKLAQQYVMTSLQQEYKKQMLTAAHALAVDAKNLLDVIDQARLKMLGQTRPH

[8] = target: T8, 382 unique human kinases (Homo sapiens, UniProt Q07002); conditions: CDK18/cyclin Y (PCTK3), compound at 10 uM, duplicate values; for remaining activity at 10 µM: read-out: % Enzyme Activity (relative to DMSO controls)
T8 construct: purchased Reaction Biology (HotSpot contract assay)

[9] = target: T9, 382 unique human kinases (Homo sapiens, UniProt Q6DT37); conditions: DMPK2, 10 uM; for remaining activity at 10 µM: read-out: % Enzyme Activity (relative to DMSO controls)
T9 construct: purchased Reaction Biology (HotSpot contract assay)
T9 sequence (Q6DT37 whole entry): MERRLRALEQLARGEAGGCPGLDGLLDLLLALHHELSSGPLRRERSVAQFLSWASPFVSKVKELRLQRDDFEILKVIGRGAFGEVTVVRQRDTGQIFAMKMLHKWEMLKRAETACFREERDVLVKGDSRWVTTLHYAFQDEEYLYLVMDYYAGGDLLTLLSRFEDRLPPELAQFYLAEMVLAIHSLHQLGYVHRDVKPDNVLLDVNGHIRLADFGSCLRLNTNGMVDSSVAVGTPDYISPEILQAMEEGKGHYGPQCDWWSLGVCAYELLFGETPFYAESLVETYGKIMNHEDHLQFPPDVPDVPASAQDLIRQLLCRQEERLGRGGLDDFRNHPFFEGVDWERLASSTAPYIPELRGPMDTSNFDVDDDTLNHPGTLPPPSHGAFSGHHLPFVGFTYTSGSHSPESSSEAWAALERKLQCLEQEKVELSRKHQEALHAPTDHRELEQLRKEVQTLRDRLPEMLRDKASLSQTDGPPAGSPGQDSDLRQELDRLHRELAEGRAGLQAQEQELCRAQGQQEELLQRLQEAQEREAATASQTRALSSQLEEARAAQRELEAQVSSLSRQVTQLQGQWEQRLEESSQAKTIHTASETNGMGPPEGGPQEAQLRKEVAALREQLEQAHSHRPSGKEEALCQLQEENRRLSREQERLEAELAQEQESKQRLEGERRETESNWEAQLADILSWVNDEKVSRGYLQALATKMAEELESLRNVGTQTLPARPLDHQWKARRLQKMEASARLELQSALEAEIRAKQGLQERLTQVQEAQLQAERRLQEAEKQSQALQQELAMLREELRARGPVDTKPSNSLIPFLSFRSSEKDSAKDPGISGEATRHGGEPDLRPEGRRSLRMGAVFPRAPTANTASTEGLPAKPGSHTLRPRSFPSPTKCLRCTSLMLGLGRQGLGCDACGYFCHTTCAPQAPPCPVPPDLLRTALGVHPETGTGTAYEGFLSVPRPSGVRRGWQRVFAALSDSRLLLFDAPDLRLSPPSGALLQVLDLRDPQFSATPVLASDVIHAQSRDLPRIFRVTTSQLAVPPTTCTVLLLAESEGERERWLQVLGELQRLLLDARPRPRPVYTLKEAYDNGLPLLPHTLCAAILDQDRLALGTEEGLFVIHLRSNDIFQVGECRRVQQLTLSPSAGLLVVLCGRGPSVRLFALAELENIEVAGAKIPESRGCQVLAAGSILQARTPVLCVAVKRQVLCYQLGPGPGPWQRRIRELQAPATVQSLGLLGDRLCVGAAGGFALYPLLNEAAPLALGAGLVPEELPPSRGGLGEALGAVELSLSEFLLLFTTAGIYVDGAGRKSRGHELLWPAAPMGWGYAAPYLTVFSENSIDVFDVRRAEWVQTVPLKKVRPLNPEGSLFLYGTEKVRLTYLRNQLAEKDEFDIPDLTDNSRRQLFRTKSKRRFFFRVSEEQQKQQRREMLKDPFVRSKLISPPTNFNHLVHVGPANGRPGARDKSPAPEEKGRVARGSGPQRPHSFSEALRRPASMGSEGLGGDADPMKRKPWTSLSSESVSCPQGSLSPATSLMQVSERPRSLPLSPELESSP

[10] = target: T10, 382 unique human kinases (Homo sapiens, UniProt Q96GD4); conditions: kinase Aurora B, compound 10 uM; for remaining activity at 10 µM: read-out: % Enzyme Activity (relative to DMSO controls)
T10 construct: purchased Reaction Biology (HotSpot contract assay)

[11] = target: T11, 382 unique human kinases (Homo sapiens, UniProt Q99986); conditions: VRK1, 10 uM; for remaining activity at 10 µM: read-out: % Enzyme Activity (relative to DMSO controls)
T11 construct: purchased Reaction Biology (HotSpot contract assay)
T11 sequence (Q99986 1-396): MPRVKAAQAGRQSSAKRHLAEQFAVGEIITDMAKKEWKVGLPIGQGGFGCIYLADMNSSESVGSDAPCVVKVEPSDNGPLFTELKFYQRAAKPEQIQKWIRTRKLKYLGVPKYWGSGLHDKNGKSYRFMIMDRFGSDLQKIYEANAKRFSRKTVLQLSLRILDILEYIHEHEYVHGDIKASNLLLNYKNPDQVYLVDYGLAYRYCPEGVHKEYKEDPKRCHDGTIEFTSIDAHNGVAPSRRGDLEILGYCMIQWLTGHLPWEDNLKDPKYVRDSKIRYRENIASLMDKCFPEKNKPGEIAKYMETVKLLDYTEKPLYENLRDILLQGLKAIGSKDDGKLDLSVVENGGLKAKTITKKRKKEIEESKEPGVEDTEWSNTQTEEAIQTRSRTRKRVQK

[12] = target: T12, 382 unique human kinases (Homo sapiens, UniProt P00519, Q252H); conditions: ABL1 (Q252H), [ATP] 20 µM, compound 10 uM; for remaining activity at 10 µM: read-out: % Enzyme Activity (relative to DMSO controls)
T12 construct: purchased Reaction Biology (HotSpot contract assay)

[13] = target: T13, 382 unique human kinases (Homo sapiens, UniProt P08581, M1250T); conditions: c-MET (M1250T), 10 uM; for remaining activity at 10 µM: read-out: % Enzyme Activity (relative to DMSO controls)
T13 construct: purchased Reaction Biology (HotSpot contract assay)

[14] = target: T14, 382 unique human kinases (Homo sapiens, UniProt P11309); conditions: PIM1, [ATP] 100 µM, compound 10 uM; for remaining activity at 10 µM: read-out: % Enzyme Activity (relative to DMSO controls)
T14 construct: purchased Reaction Biology (HotSpot contract assay)

[15] = target: T15, 382 unique human kinases (Homo sapiens, UniProt Q08881); conditions: ITK, 10 uM; for remaining activity at 10 µM: read-out: % Enzyme Activity (relative to DMSO controls)
T15 construct: purchased Reaction Biology (HotSpot contract assay)
T15 sequence (Q08881 1-620): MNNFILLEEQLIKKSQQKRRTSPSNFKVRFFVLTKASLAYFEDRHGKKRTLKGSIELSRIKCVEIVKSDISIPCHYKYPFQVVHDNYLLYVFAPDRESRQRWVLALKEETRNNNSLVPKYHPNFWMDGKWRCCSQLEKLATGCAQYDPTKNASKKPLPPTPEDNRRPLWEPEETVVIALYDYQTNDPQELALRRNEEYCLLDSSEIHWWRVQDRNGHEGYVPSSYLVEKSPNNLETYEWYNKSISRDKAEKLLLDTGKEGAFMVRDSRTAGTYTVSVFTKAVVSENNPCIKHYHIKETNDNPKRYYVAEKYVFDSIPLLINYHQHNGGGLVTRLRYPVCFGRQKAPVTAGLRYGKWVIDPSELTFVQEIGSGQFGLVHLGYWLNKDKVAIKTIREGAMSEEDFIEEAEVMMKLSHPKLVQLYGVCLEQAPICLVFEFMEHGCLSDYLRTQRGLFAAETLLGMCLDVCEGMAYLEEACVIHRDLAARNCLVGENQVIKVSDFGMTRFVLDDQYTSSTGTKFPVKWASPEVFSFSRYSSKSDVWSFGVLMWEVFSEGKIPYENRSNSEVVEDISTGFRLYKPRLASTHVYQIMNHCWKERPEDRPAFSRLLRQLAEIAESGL

[16] = target: T16, 382 unique human kinases (Homo sapiens, UniProt Q9UM73, G1202R); conditions: ALK (G1202R), [ATP] 20 µM, compound 10 uM; for remaining activity at 10 µM: read-out: % Enzyme Activity (relative to DMSO controls)
T16 construct: purchased Reaction Biology (HotSpot contract assay)
T16 sequence (Q9UM73 19-1620 G1202R): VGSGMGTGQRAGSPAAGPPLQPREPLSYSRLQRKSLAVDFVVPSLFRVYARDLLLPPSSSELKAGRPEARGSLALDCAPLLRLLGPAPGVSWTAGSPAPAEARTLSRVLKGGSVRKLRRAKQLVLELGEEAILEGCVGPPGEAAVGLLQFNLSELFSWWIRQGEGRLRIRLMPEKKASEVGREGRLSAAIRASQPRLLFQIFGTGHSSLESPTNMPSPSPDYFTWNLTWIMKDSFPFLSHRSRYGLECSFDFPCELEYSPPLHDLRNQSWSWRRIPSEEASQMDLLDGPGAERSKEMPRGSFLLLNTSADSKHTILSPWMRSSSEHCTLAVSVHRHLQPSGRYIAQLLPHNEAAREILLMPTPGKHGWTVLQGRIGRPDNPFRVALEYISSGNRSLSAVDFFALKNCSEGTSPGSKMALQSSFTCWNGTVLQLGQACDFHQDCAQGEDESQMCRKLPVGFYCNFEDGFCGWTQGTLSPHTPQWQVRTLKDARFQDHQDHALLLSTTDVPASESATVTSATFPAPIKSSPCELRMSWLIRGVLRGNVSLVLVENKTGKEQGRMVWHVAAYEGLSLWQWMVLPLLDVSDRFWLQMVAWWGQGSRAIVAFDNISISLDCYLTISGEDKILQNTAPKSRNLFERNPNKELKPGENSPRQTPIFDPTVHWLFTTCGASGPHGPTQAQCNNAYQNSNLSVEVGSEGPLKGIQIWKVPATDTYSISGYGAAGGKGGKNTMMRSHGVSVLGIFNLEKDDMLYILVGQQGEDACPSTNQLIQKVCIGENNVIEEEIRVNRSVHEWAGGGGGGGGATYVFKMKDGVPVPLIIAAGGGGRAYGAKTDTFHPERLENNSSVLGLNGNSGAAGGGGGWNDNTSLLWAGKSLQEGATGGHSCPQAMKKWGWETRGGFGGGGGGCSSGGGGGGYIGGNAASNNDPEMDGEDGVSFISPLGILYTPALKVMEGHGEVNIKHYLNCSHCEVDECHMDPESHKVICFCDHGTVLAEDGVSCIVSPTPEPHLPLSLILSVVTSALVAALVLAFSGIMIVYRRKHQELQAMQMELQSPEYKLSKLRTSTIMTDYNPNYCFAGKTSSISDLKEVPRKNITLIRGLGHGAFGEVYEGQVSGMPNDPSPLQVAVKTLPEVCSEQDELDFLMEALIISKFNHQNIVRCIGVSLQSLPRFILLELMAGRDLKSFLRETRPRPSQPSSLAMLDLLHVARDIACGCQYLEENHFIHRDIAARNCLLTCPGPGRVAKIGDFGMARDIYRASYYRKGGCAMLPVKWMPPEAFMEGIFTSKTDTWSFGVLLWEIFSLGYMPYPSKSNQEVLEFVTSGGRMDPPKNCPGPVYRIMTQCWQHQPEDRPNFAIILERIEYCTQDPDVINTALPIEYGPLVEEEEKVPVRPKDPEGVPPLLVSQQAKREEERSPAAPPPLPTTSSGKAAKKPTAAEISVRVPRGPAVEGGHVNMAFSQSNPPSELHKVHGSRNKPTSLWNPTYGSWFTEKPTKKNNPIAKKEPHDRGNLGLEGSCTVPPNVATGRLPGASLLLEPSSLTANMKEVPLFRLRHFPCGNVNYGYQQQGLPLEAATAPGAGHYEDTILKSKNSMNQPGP

[17] = target: T17, 382 unique human kinases (Homo sapiens, UniProt Q9UM73, S1206R); conditions: ALK (S1206R), [ATP] 20 µM, compound 10 uM; for remaining activity at 10 µM: read-out: % Enzyme Activity (relative to DMSO controls)
T17 construct: purchased Reaction Biology (HotSpot contract assay)
T17 sequence (Q9UM73 19-1620 S1206R): as the sequence (Q9UM73 19-1620 G1202R) above, with R1184G, S1188R counted along it

T1 sequence (P22612 whole entry): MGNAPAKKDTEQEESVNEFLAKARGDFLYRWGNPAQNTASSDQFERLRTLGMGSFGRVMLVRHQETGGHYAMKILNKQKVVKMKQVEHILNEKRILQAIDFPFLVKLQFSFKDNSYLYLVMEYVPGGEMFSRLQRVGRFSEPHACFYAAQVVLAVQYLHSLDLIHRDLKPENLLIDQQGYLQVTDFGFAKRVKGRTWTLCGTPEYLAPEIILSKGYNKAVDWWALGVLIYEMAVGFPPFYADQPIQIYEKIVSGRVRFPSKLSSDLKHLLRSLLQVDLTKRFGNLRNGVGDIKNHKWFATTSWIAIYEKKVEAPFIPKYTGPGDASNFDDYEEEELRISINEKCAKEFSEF

SMILES	remaining activity at 10 µM [1] [%]	remaining activity at 10 µM [2] [%]	remaining activity at 10 µM [3] [%]	remaining activity at 10 µM [4] [%]	remaining activity at 10 µM [5] [%]	remaining activity at 10 µM [6] [%]	remaining activity at 10 µM [7] [%]	remaining activity at 10 µM [8] [%]	remaining activity at 10 µM [9] [%]	remaining activity at 10 µM [10] [%]	remaining activity at 10 µM [11] [%]	remaining activity at 10 µM [12] [%]	remaining activity at 10 µM [13] [%]	remaining activity at 10 µM [14] [%]	remaining activity at 10 µM [15] [%]	remaining activity at 10 µM [16] [%]	remaining activity at 10 µM [17] [%]	further results
CC(C)c1cc(-c2n[nH]c(=O)n2-c2ccc3c(ccn3C)c2)c(O)cc1O [Ganetespib (STA9090)]	101	91.3	87.2	83.9	84.4	125	91.3	107	75.6	83.6	75.3							
CC(C)c1cc(-c2n[nH]c(=O)n2-c2ccc3c(ccn3C)c2)c(O)cc1O [Ganetespib]												3.59	99.8	15.9	95.6	52.8	42	
CCNC(=O)c1noc(-c2cc(C(C)C)c(O)cc2O)c1-c1ccc(CN2CCOCC2)cc1 [Luminespib (AUY-922)]	104	107	116	97.3	101	120	98	111	114	104	87							% Enzyme Activity (relative to DMSO controls) [1]: 102.38%; % Enzyme Activity (relative to DMSO controls) [2]: 107.14%; % Enzyme Activity (relative to DMSO controls) [3]: 114.11%; % Enzyme Activity (relative to DMSO controls) [4]: 96.69%; % Enzyme Activity (relative to DMSO controls) [5]: 96.26%; % Enzyme Activity (relative to DMSO controls) [6]: 117.92%; % Enzyme Activity (relative to DMSO controls) [7]: 96.62%; % Enzyme Activity (relative to DMSO controls) [8]: 109.58%; % Enzyme Activity (relative to DMSO controls) [9]: 113.14%; % Enzyme Activity (relative to DMSO controls) [10]: 100.09%; % Enzyme Activity (relative to DMSO controls) [11]: 84.23%
CCNC(=O)c1noc(-c2cc(C(C)C)c(O)cc2O)c1-c1ccc(CN2CCOCC2)cc1 [Luminespib]												5.39	113	97.2	94.1	104	104	% Enzyme Activity (relative to DMSO controls) [12]: 5.25%; % Enzyme Activity (relative to DMSO controls) [13]: 112.05%; % Enzyme Activity (relative to DMSO controls) [14]: 94.76%; % Enzyme Activity (relative to DMSO controls) [15]: 92.96%; % Enzyme Activity (relative to DMSO controls) [16]: 100.40%; % Enzyme Activity (relative to DMSO controls) [17]: 100.88%
